Test results published in US9187472B2 (AbbVie Inc., priority 2012, dated 2015).

Legend:
[1] = molecular target: NAMPT (human, recombinant, C-terminally His-tagged) (Homo sapiens, UniProt P43490); experiment: Time-Resolved Fluorescence Resonance Energy Transfer (TR-FRET) Binding Assay of NAMPT; settings: without substrates; 6.8 nM NAMPT, 200 nM probe, 3 hours equilibration
Method: Determination of the utility of compounds having Formula (I) as binders to and inhibitors of NAMPT was performed using Time-Resolved Fluorescence Resonance Energy Transfer (TR-FRET) binding assays.
Time-Resolved Fluorescence Resonance Energy Transfer (TR-FRET) Binding Assay of NAMPT
Test compounds were serially diluted (typically 11 half log dilutions) in neat DMSO to 50× final concentrations prior to dilution with assay buffer (50 mM HEPES (NaOH), pH 7.5, 100 mM NaCl, 10 mM MgCl2, 1 mM DTT, 1% Glycerol) to 3× and 6% DMSO. Six μL were transferred to 384-well low-volume plates (Owens Corning #3673). To this, […] of a 1.5× solution containing enzyme, probe and antibody were added. Final concentrations in the 18 μL, reactions were 1× assay buffer, 2% DMSO, 6.8 nM NAMPT (human, recombinant, C-terminally His-tagged), 200 nM probe (a potent nicotinamide-competitive inhibitor conjugated to Oregon Green 488) and 1 nM Tb-anti-His antibody (Invitrogen # PV5895). Reactions were equilibrated at room temperature for 3 hours prior to reading on an Envision multi-label plate reader (Perkin Elmer; Ex=337 nm, Em=520 and 495 nm). Time-resolved FRET ratios (Em520/Em495) were normalized to controls, plotted as a function of compound concentration and fit with the four-parameter logistic equation to determine IC50s.

NAMPT = NAMPT (Homo sapiens, UniProt P43490); experiment: TR-FRET Binding Assay of NAMPT with PRPP; settings: with 200 μM PRPP and 2.5 mM ATP; 2 nM NAMPT, 2 nM probe, 16 hours equilibration
Chain of NAMPT (P43490 whole entry): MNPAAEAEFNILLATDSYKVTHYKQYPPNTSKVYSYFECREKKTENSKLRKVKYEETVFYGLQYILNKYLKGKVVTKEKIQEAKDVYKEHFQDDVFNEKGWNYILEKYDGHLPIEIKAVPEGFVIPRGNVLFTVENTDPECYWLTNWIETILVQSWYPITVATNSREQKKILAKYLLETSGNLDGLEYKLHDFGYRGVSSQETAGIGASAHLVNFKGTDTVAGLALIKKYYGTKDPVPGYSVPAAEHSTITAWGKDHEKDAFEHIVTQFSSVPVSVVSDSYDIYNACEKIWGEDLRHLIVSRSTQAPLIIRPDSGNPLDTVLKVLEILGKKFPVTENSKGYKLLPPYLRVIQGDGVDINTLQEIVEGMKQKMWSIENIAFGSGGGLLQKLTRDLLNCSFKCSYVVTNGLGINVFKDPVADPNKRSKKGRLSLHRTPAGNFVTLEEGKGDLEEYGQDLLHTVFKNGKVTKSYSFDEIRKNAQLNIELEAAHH
Method: Time-Resolved Fluorescence Resonance Energy Transfer (TR-FRET) Binding Assay of NAMPT with PRPP
Compound handling and data processing were identical to the assay in the absence of substrates (above). Final concentrations were 1× assay buffer, 2% DMSO, 2 nM NAMPT, 2 nM probe, 1 nM Tb-anti-His antibody (Invitrogen # PV5895), 200 μM PRPP and 2.5 mM ATP. Reactions were equilibrated for 16 hours prior to measurement to allow for potential enzymatic modification of test compounds.

PC3 cells = experiment: NAMPT Cell Proliferation Assay; assay type: cell-based; settings: Homo sapiens, PC-3, 120 h, 5 days incubation, cell viability by Cell Titer Glo
In short: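 Cell Titer Glo viability after 5-day exposure (37° C, 5% CO2); PC3, 500 cells/well, RPMI + 10% heat-inactivated FBS, overnight attachment before dosing. Dose range 10 μM to 1×10^−5 μM, 10-fold steps. IC50 = sigmoidal fit of % inhibition.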

Chain of NAMPT (human, recombinant, C-terminally His-tagged) (P43490 whole entry): as above

| IC50 [1] | IC50 (NAMPT) | IC50 (PC3 cells) | SMILES |
| --- | --- | --- | --- |
| 2.73 µM | 0.000418 µM | 0.36 µM | O=C(Nc1ccc(C(=O)NCCCN2CCOCC2)cc1)Nc1ccc2nccn2c1 [Example 18, 4-[(imidazo[1,2-a]pyridin-6-ylcarbamoyl)amino]-N-[3-(morpholin-4-yl)propyl]benzamide] |
| 2.68 µM | 0.000921 µM | 6.63 µM | O=C(Nc1ccc(C(=O)Nc2ccccc2)cc1)Nc1ccc2nccn2c1 [Example 19, 4-[(imidazo[1,2-a]pyridin-6-ylcarbamoyl)amino]-N-phenylbenzamide] |
| 0.404 µM | 0.000169 µM | 0.102 µM | CCC(C)CNC(=O)c1ccc(NC(=O)Nc2ccc3nccn3c2)cc1 (centres unmarked) [Example 20, 4-[(imidazo[1,2-a]pyridin-6-ylcarbamoyl)amino]-N-(2-methylbutyl)benzamide] |
| 0.433 µM | 0.000887 µM | 0.899 µM | O=C(Nc1ccc(C(=O)NCCCN2CCCC2=O)cc1)Nc1ccc2nccn2c1 [Example 21, 4-[(imidazo[1,2-a]pyridin-6-ylcarbamoyl)amino]-N-[3-(2-oxopyrrolidin-1-yl)propyl]benzamide] |
| 0.399 µM | 0.000277 µM | 0.142 µM | O=C(Nc1ccc(C(=O)NCC2CCOCC2)cc1)Nc1ccc2nccn2c1 [Example 22] |
| 0.281 µM | 0.000409 µM | 0.0415 µM | O=C(Nc1ccc(C(=O)NCC2CCCCO2)cc1)Nc1ccc2nccn2c1 (centres unmarked) [Example 23] |
| 0.167 µM | 0.000363 µM | 0.691 µM | O=C(Nc1ccc(C(=O)NCC2CCS(=O)(=O)C2)cc1)Nc1ccc2nccn2c1 (centres unmarked) [Example 24, N-[(1,1-dioxidotetrahydrothiophen-3-yl)methyl]-4-[(imidazo[1,2-a]pyridin-6-ylcarbamoyl)amino]benzamide] |
| 0.508 µM | 0.000714 µM | 0.146 µM | CC(C)(C)OC(=O)N1CC=C(c2ccc(NC(=O)Nc3ccc4nccn4c3)cc2)CC1 [Example 25, tert-butyl 4-{4-[(imidazo[1,2-a]pyridin-6-ylcarbamoyl)amino]phenyl}-3,6-dihydropyridine-1(2H)-carboxylate] |
| 0.211 µM | 0.0011 µM | 0.261 µM | O=C(CC1CCOC1)Nc1ccc(NC(=O)Nc2ccc3nccn3c2)cc1 (centres unmarked) [Example 26, N-{4-[(imidazo[1,2-a]pyridin-6-ylcarbamoyl)amino]phenyl}-2-(tetrahydrofuran-3-yl)acetamide] |
| 0.0207 µM | 0.000169 µM | – | O=C(NCc1ccn2ccnc2c1)c1ccc(-c2cnn(C3CCOCC3)c2)s1 [Example 410, N-(imidazo[1,2-a]pyridin-7-ylmethyl)-5-[1-(tetrahydro-2H-pyran-4-yl)-1H-pyrazol-4-yl]thiophene-2-carboxamide] |

Continued, compound first:

| SMILES | IC50 [1] | IC50 (NAMPT) | IC50 (PC3 cells) |
| --- | --- | --- | --- |
| CC(C)CCNC(=O)c1ccc(NC(=O)Nc2ccc3nccn3c2)cc1 [Example 1, 4-[(imidazo[1,2-a]pyridin-6-ylcarbamoyl)amino]-N-(3-methylbutyl)benzamide] | 0.0921 µM | 0.00072 µM | 0.0609 µM |
| CC(C)CCNC(=O)c1ccc(NC(=O)Nc2ccn3ccnc3c2)cc1 [Example 2, 4-[(imidazo[1,2-a]pyridin-7-ylcarbamoyl)amino]-N-(3-methylbutyl)benzamide] | 0.854 µM | 0.0398 µM | > 10 µM |
| O=C(CC1CCCC1)Nc1ccc(NC(=O)Nc2ccc3nccn3c2)cc1 [Example 3, 2-cyclopentyl-N-{4-[(imidazo[1,2-a]pyridin-6-ylcarbamoyl)amino]phenyl}acetamide] | 0.0316 µM | 0.000282 µM | 0.0367 µM |
| O=C(Nc1ccc(C(=O)NCCc2ccccc2)cc1)Nc1ccc2nccn2c1 [Example 4, 4-[(imidazo[1,2-a]pyridin-6-ylcarbamoyl)amino]-N-(2-phenylethyl)benzamide] | 0.413 µM | 0.000516 µM | 0.935 µM |
| O=C(Nc1ccc(C(=O)NCCN2CCOCC2)cc1)Nc1ccc2nccn2c1 [Example 5, 4-[(imidazo[1,2-a]pyridin-6-ylcarbamoyl)amino]-N-[2-(morpholin-4-yl)ethyl]benzamide] | 2.5 µM | 0.000684 µM | 0.74 µM |
| CC(C)(CO)NC(=O)c1ccc(NC(=O)Nc2ccc3nccn3c2)cc1 [Example 6, N-(1-hydroxy-2-methylpropan-2-yl)-4-[(imidazo[1,2-a]pyridin-6-ylcarbamoyl)amino]benzamide] | 2.91 µM | 0.000964 µM | 6.65 µM |
| O=C(Nc1ccc(C(=O)NCc2ccccc2)cc1)Nc1ccc2nccn2c1 [Example 7, N-benzyl-4-[(imidazo[1,2-a]pyridin-6-ylcarbamoyl)amino]benzamide] | 0.183 µM | 0.000516 µM | 0.527 µM |
| O=C(Nc1ccc(C(=O)NCC2CCCC2)cc1)Nc1ccc2nccn2c1 [Example 8, N-(cyclopentylmethyl)-4-[(imidazo[1,2-a]pyridin-6-ylcarbamoyl)amino]benzamide] | 0.114 µM | 0.000702 µM | 0.0702 µM |
| O=C(Nc1ccc(C(=O)NCCCN2CCCCC2)cc1)Nc1ccc2nccn2c1 [Example 9, 4-[(imidazo[1,2-a]pyridin-6-ylcarbamoyl)amino]-N-[3-(piperidin-1-yl)propyl]benzamide] | 1.72 µM | 0.000459 µM | 0.649 µM |
| O=C(Nc1ccc(C(=O)NCCOc2ccccc2)cc1)Nc1ccc2nccn2c1 [Example 10, 4-[(imidazo[1,2-a]pyridin-6-ylcarbamoyl)amino]-N-(2-phenoxyethyl)benzamide] | 0.197 µM | 0.000457 µM | 0.331 µM |
| O=C(Nc1ccc(C(=O)NCCN2CCCC2)cc1)Nc1ccc2nccn2c1 [Example 11, 4-[(imidazo[1,2-a]pyridin-6-ylcarbamoyl)amino]-N-[2-(pyrrolidin-1-yl)ethyl]benzamide] | 7.6 µM | 0.000271 µM | 4.53 µM |
| CC(C)OCCNC(=O)c1ccc(NC(=O)Nc2ccc3nccn3c2)cc1 [Example 12, -[(imidazo[1,2-a]pyridin-6-ylcarbamoyl)amino]-N-[2-(propan-2-yloxy)ethyl]benzamide] | 0.486 µM | 0.000292 µM | 0.213 µM |
| CC(C)(O)CNC(=O)c1ccc(NC(=O)Nc2ccc3nccn3c2)cc1 [Example 13, N-(2-hydroxy-2-methylpropyl)-4-[(imidazo[1,2-a]pyridin-6-ylcarbamoyl)amino]benzamide] | 0.653 µM | 0.000663 µM | 1.17 µM |
| COc1ccc(C(CO)NC(=O)c2ccc(NC(=O)Nc3ccc4nccn4c3)cc2)cc1 (centres unmarked) [Example 14, N-[2-hydroxy-1-(4-methoxyphenyl)ethyl]-4-[(imidazo[1,2-a]pyridin-6-ylcarbamoyl)amino]benzamide] | 0.741 µM | 0.00122 µM | 0.644 µM |
| O=C(Nc1ccc(C(=O)NCCN2CCCC2=O)cc1)Nc1ccc2nccn2c1 [Example 15, 4-[(imidazo[1,2-a]pyridin-6-ylcarbamoyl)amino]-N-[2-(2-oxopyrrolidin-1-yl)ethyl]benzamide] | 1.76 µM | 0.000841 µM | 3.97 µM |
| O=C(Nc1ccc(C(=O)NCC2CCCO2)cc1)Nc1ccc2nccn2c1 (centres unmarked) [Example 16] | 0.409 µM | 0.000396 µM | 0.325 µM |
| CCCNC(=O)c1ccc(NC(=O)Nc2ccc3nccn3c2)cc1 [Example 17, 4-[(imidazo[1,2-a]pyridin-6-ylcarbamoyl)amino]-N-propylbenzamide] | 2.96 µM | 0.000401 µM | 4.96 µM |
